Laboratory results from EP3858818A1, “TRIKETONE COMPOUND, PREPARATION METHOD THEREFOR AND USE THEREOF, AND HERBICIDE” (Shandong Cynda Chemical Co., LTD., priority 2018, dated 2020).

Legend:
Format in all cases: in vivo
[1] = test system: Setaria viridis; assay: Preliminary screening test (pot-culture method), post-emergence stem and leaf spray; settings: 150 g.a.i/ha; stems and leaves sprayed at 4-5 leaves stage; investigated after 30 days; visual rating
Source text: (§1) Preliminary screening test (pot-culture method): the targets of the test are Echinochloa crusgalli, Digitaria sanguinalis, Setaria viridis, Amaranthus tricolor, Chenopodium album, Abutilontheophrasti. Spraying the stems and leaves after seedlings: taking a paper cup with an inner diameter of 7 cm and fill it with composite soil (vegetable garden soil: seedling substrate, 1: 2, v/v) to 3/4 of the cup. Sowing weeds directly, cover it with 0.2 cm soil and wait until it grows to 4-5 leaves stage for later use. The compounds of the invention and the aforementioned comparative compound D1 are applied in an automatic spray tower at a dose of 150 g.a.i/ha (g/ha). After the liquid on the crop leaves is dried in the air, the crops are transferred to the greenhouse for cultivation (humidity 70%), and the results were investigated after 30 days.
(§2) The growth inhibition rate evaluation method is a visual method. The growth inhibition rate is rated specifically according to the conditions shown in table 2, and the test results are shown in Table 3.

[2] = test system: Chenopodium album; assay: as above; settings: 150 g.a.i/ha; stems and leaves sprayed at 4-5 leaves stage; investigated after 30 days; visual rating
Source text: as §1, §2

[3] = test system: Digitaria sanguinalis; assay: as above; settings: 150 g.a.i/ha; stems and leaves sprayed at 4-5 leaves stage; investigated after 30 days; visual rating
Source text: as §1, §2

[4] = test system: Echinochloa crusgalli; assay: as above; settings: 150 g.a.i/ha; stems and leaves sprayed at 4-5 leaves stage; investigated after 30 days; visual rating
Source text: as §1, §2

[5] = test system: Amaranthus tricolor; assay: as above; settings: 150 g.a.i/ha; stems and leaves sprayed at 4-5 leaves stage; investigated after 30 days; visual rating
Source text: as §1, §2

[6] = test system: Abutilon theophrasti; assay: as above; settings: 150 g.a.i/ha; stems and leaves sprayed at 4-5 leaves stage; investigated after 30 days; visual rating
Source text: as §1, §2

[7] = test system: Aegilops squarrosa, Avenafatua, Bromus japonicus, Alopecurus aequalis, and Alopecurus japonicus; assay: Re-screening with reduced concentration, summary in text for gramineous weeds of wheat fields; settings: at three application concentrations (120, 60, 30 g.a.i/ha); result in words
[8] = test system: Avena fatua; assay: Re-screen assay at low dose (pot-culture method); settings: post-emergence spray, 30 days
Source text: as §1, §2
(§3) The same method as in test example 1 is used to conduct re-screen assays at the low dose for representative compounds, and the results are shown in Table 4.

[9] = test system: Setaria viridis; assay: Re-screen assay at low dose (pot-culture method); settings: post-emergence spray, 30 days
Source text: as §1, §2, §3

[10] = test system: Alopecurus aequalis; assay: Re-screen assay at low dose (pot-culture method); settings: post-emergence spray, 30 days
Source text: as §1, §2, §3

[11] = test system: Alopecurus japonicus; assay: Re-screen assay at low dose (pot-culture method); settings: post-emergence spray, 30 days
Source text: as §1, §2, §3

[12] = test system: Digitaria sanguinalis; assay: Re-screen assay at low dose (pot-culture method); settings: post-emergence spray, 30 days
Source text: as §1, §2, §3

[13] = test system: Bromus japonicus; assay: Re-screen assay at low dose (pot-culture method); settings: post-emergence spray, 30 days
Source text: as §1, §2, §3

[14] = test system: Echinochloa crusgalli; assay: Re-screen assay at low dose (pot-culture method); settings: post-emergence spray, 30 days
Source text: as §1, §2, §3

[15] = test system: Aegilops squarrosa; assay: Re-screen assay at low dose (pot-culture method); settings: post-emergence spray, 30 days
Source text: as §1, §2, §3

## Cc1cccc(C)c1-n1c(=O)c2cc(C(=O)C3=C(O)CCCC3=O)ccc2n(C)c1=O [Compound D1]
[1]
  Inhibition Level Setaria viridis: 4 (weeds or crops die.)
[2]
  Inhibition Level Chenopodium album: 5 (weeds or crops die completely.)
[3]
  Inhibition Level Digitaria sanguinalis: 4 (weeds or crops die.)
[4]
  Inhibition Level Echinochloa crusgalli: 4 (weeds or crops die.)
[5]
  Inhibition Level Amaranthus tricolor: 4 (weeds or crops die.)
[6]
  Inhibition Level Abutilon theophrasti: 4 (weeds or crops die.)
[7]
  herbicidal activity on gramineous weeds in wheat fields: hardly shows herbicidal activity
[8]; 30 g.a.i/ha
  Inhibition Level Avena fatua: 0 (has no influence on the growth of weeds or crops and has no drug effect symptom.)
[8]; 60 g.a.i/ha
  Inhibition Level Avena fatua: 0 (has no influence on the growth of weeds or crops and has no drug effect symptom.)
[8]; 120 g.a.i/ha
  Inhibition Level Avena fatua: 2 (has certain effect on weed or crop growth, and has obvious drug effect.)
[9]; 30 g.a.i/ha
  Inhibition Level Setaria viridis: 3 (weeds or crops are subject to severe growth inhibition.)
[9]; 60 g.a.i/ha
  Inhibition Level Setaria viridis: 3 (weeds or crops are subject to severe growth inhibition.)
[9]; 120 g.a.i/ha
  Inhibition Level Setaria viridis: 4 (weeds or crops die.)
[10]; 30 g.a.i/ha
  Inhibition Level Alopecurus aequalis: 0 (has no influence on the growth of weeds or crops and has no drug effect symptom.)
[10]; 60 g.a.i/ha
  Inhibition Level Alopecurus aequalis: 0 (has no influence on the growth of weeds or crops and has no drug effect symptom.)
[10]; 120 g.a.i/ha
  Inhibition Level Alopecurus aequalis: 1 (slightly affects the growth of weeds or crops, and has no obvious drug effect symptom.)
[11]; 30 g.a.i/ha
  Inhibition Level Alopecurus japonicus: 0 (has no influence on the growth of weeds or crops and has no drug effect symptom.)
[11]; 60 g.a.i/ha
  Inhibition Level Alopecurus japonicus: 0 (has no influence on the growth of weeds or crops and has no drug effect symptom.)
[11]; 120 g.a.i/ha
  Inhibition Level Alopecurus japonicus: 0 (has no influence on the growth of weeds or crops and has no drug effect symptom.)
[12]; 30 g.a.i/ha
  Inhibition Level Digitaria sanguinalis: 3 (weeds or crops are subject to severe growth inhibition.)
[12]; 60 g.a.i/ha
  Inhibition Level Digitaria sanguinalis: 3 (weeds or crops are subject to severe growth inhibition.)
[12]; 120 g.a.i/ha
  Inhibition Level Digitaria sanguinalis: 4 (weeds or crops die.)
[13]; 30 g.a.i/ha
  Inhibition Level Bromus japonicus: 0 (has no influence on the growth of weeds or crops and has no drug effect symptom.)
[13]; 60 g.a.i/ha
  Inhibition Level Bromus japonicus: 0 (has no influence on the growth of weeds or crops and has no drug effect symptom.)
[13]; 120 g.a.i/ha
  Inhibition Level Bromus japonicus: 0 (has no influence on the growth of weeds or crops and has no drug effect symptom.)
[14]; 30 g.a.i/ha
  Inhibition Level Echinochloa crusgalli: 3 (weeds or crops are subject to severe growth inhibition.)
[14]; 60 g.a.i/ha
  Inhibition Level Echinochloa crusgalli: 3 (weeds or crops are subject to severe growth inhibition.)
[14]; 120 g.a.i/ha
  Inhibition Level Echinochloa crusgalli: 4 (weeds or crops die.)
[15]; 30 g.a.i/ha
  Inhibition Level Aegilops squarrosa: 0 (has no influence on the growth of weeds or crops and has no drug effect symptom.)
[15]; 60 g.a.i/ha
  Inhibition Level Aegilops squarrosa: 1 (slightly affects the growth of weeds or crops, and has no obvious drug effect symptom.)
[15]; 120 g.a.i/ha
  Inhibition Level Aegilops squarrosa: 2 (has certain effect on weed or crop growth, and has obvious drug effect.)
